Measured values from patent US20150004175A1, “Compositions and Methods for Reducing CTL Exhaustion” (priority 2011, published 2015).

Legend:
[1] = tested on: LCMV-CL13; set-up: species or system mice (C57BL/6); settings: mouse, in vivo
[2] = tested on: LCMV-CL13; set-up: species or system mice (C57BL/6); settings: mouse, in vivo; remark: listed apart in the source
[3] = tested on: P14+ CD8 T cells; type: cell-based, mice

Structure (SMILES)	INFγ, TNFα, and IL-2 production by CD8+ T cells stimulated with LCMV peptides GP276, GP33 and NP396 [1]	number of virus-specific CD8+ T cells [2]	inhibition of TNF-α and IL-2 production [3]	production of IFN-γ, TNF-α and IL-2 (all three cytokines) [3]	effect on cytokine production ([3]; EP2/4 DKO P14+ CD8 T cells, 40 μM PGE2)
CC(C)Oc1ccc2c(=O)c3cc(C(=O)O)ccc3oc2c1 [AH6809]	increased	increased			
CCc1nc2c(C)nc(C)cc2n1-c1ccc(CCNC(=O)NS(=O)(=O)c2ccc(C)cc2)cc1 [CJ-23423]	increased	increased			
CCCCc1nn(-c2ccccc2C(F)(F)F)c(=O)n1Cc1ccc(-c2ccccc2S(=O)(=O)NC(=O)c2sccc2C)cc1 [L161,982]	increased	increased			
COc1ccc2cc(OCC3(C(=O)O)CN(C(=O)c4ccc(F)cc4)C3)ccc2c1 [PF-04418948]	increased	increased			
CCCCC[C@H](O)/C=C/[C@H]1[C@H](O)CC(=O)[C@@H]1C/C=C\CCCC(=O)O [PGE2]			75-80%	suppressed	very little effect
